Where “and” joins values, the source holds several entries; their conditions need not be identical. Equal entries are not always repeated.
Legend:
[1] = system: Oryctolagus sp.; conditions: acute, dermal
[2] = system: Canidae; conditions: oral; for NOAEL: subchronic, diet, Beagle
[3] = system: Rattus norvegicus; conditions: for LC50 / LD50: acute; for LC50: inhalation; for LD50 / NOAEL / LOAEL: oral
[4] = system: Mus musculus; conditions: oral; for NOAEL: duration: 10 days, gavage
[5] = system: Oryctolagus sp.
[6] = system: Canidae; conditions: chronic; duration: 2 years; oral; diet; M/F; Dog Other; No adverse effects observed at the HDT
[7] = system: Rattus norvegicus
[8] = system: Rattus norvegicus; remark: listed apart in the source
[9] = system: Rattus norvegicus; conditions: subchronic, oral; for NOEL: Fischer 344
[10] = system: Canidae; conditions: chronic; duration: 6 months; oral; diet; Dog Other; Cholinesterase: Inhibition
[11] = system: Oryctolagus sp.; conditions: short-term; duration: 12 days; oral; gavage; M; New Zealand; hepatic
[12] = system: Rattus norvegicus; conditions: chronic; duration: 16 weeks; oral; diet; Kidney: Degeneration
[13] = developmental, oral, M/F, Reduced body weight gain (maternal), increased resorption, reduced body weight (fetal), delayed ossification
[14] = developmental, inhalation, M/F, developmental toxicity
[15] = chronic, oral, F, liver and kidney toxicity
[16] = subchronic, inhalation, M, New Zealand White / Sprague-Dawley, testicular effects
[17] = chronic, duration: 118 weeks, diet, F, Sprague-Dawley
[18] = chronic, duration: 118 weeks, diet, M, Sprague-Dawley
[19] = developmental, duration: 20 days, drinking water, Osborne-Mendel
[20] = reproduction developmental, duration: 27 weeks, diet, Charles River Ceesarean albino, generation: F0
[21] = reproduction developmental, duration: 118 weeks, diet, F, Sprague-Dawley
[22] = reproduction developmental, duration: 118 weeks, diet, M, Sprague-Dawley
[23] = reproduction developmental, diet, Crl:CD(SD)

SMILES: CC(C)(C)c1cc(CCC(=O)OCCSCCOC(=O)CCc2cc(C(C)(C)C)c(O)c(C(C)(C)C)c2)cc(C(C)(C)C)c1O
- LD50 ([1]; occlusive, New Zealand): > 3000 mg/kg
- NOAEL ([2]; duration: 90 days): 74 mg/kg-day
- LC50 ([3]; whole body): > 6300 mg/m3
- LD50 ([3]; gavage): > 5000 mg/kg
- NOAEL ([3]; chronic, duration: 93 days, diet, F): 4.5 mg/kg-day
- NOAEL ([3]; chronic, duration: 93 days, diet, M): 4.4 mg/kg-day
- NOAEL ([3]; subchronic, duration: 90 days, diet): 960 mg/kg-day

SMILES: CC(C)(C)c1cc(CCC(=O)OCC(COC(=O)CCc2cc(C(C)(C)C)c(O)c(C(C)(C)C)c2)(COC(=O)CCc2cc(C(C)(C)C)c(O)c(C(C)(C)C)c2)COC(=O)CCc2cc(C(C)(C)C)c(O)c(C(C)(C)C)c2)cc(C(C)(C)C)c1O [Irganox 1010]
- LD50 [1]: > 3160 mg/kg
- NOAEL ([2]; duration: 3 months): 322 mg/kg-day
- LC50 [3]: > 1.96 mg/L
- LD50 [3]: > 5000 mg/kg
- NOAEL ([3]; developmental, duration: 10 days, gavage, Sprague-Dawley): 1000 mg/kg-day
- NOAEL ([3]; reproduction developmental, duration: 10 months, diet, generation: F0): 10000 ppm
- NOAEL ([3]; reproduction developmental, duration: 10 months, diet, generation: F1): 10000 ppm
- NOAEL ([3]; reproduction developmental, duration: 10 months, diet, generation: F2): 10000 ppm
- NOAEL ([3]; subchronic, duration: 3 months, diet, Sprague-Dawley): 2500 mg/kg-day
- NOAEL ([4]; developmental): 1000 mg/kg-day
- NOAEL ([4]; developmental, NMRI): 1000 mg/kg-day
- NOAEL ([4]; reproduction developmental, F): 1000 mg/kg-day

SMILES: C#CCOS(=O)OC1CCCCC1Oc1ccc(C(C)(C)C)cc1 (stereo not given) [Propargite]
- LEL [5, 13]: 6 mg/kg-day
- NOEL [5, 13]: 2 mg/kg-day
- NOEL [6]: 22.5 mg/kg-day

SMILES: CCc1ccccc1 [Ethylbenzene]
- NOAEL [5, 14]: 434 mg/m3
- LOAEL [7, 15]: 408 mg/kg-day
- NOEL [7, 15]: 97.1 mg/kg-day and 136 mg/kg-day
- LOAEL [7, 14]: 4340 mg/m3
- LOAEL ([8]; chronic, duration: 104 weeks, inhalation, M/F, Fischer 344, renal): 326 mg/m3
- NOAEL ([9]; duration: 90 days, gavage, M/F, Wistar, Clinical Observation: Salivation Discolored urine + Functional Observational Battery: Decreased landing foot-splay + Body Weight Changes: …): 75 mg/kg-day

SMILES: CCOP(=S)(OCC)SCSC(C)(C)C [Terbufos]
- NOAEL [10]: 0.0025 mg/kg-day

SMILES: COCCO [2-Methoxyethanol]
- LOAEL [5, 16]: 311 mg/m3
- NOAEL [5, 16]: 93 mg/m3
- NOEL ([9]; drinking water, F, Deaths + Clinical Observation: Tremors Diarrhea Emaciation Abnormal posture Pallor Tachypnea Comatose state + Body Weight Changes: decrease…): 70 mg/kg-day
- NOEL ([9]; drinking water, M/F, Deaths + Clinical Observation: Tremors Diarrhea Emaciation Abnormal posture Pallor Tachypnea Comatose state + Body Weight Changes: decrease…): < 114 mg/kg-day

SMILES: CC(C)CCCCCCOC(=O)CCCCC(=O)OCCCCCCC(C)C [Diisononyl adipate]
- LD50 [1]: > 3160 mg/kg
- NOAEL ([2]; duration: 13 weeks): 274 mg/kg-day
- LD50 ([3]; gavage): > 10000 mg/kg
- NOAEL ([3]; subchronic, duration: 13 weeks, diet): 500 mg/kg-day

SMILES: ClC(Cl)(Cl)C(Cl)(Cl)Cl [Hexachloroethane]
- NOAEL ([7]; subchronic, duration: 6 weeks, inhalation, M/F, Sprague-Dawley, neurotoxicity: tremors and ruffled pelt): 465 mg/m3
- NOAEL [11]: 100 mg/kg-day
- NOAEL ([8]; chronic, duration: 16 weeks, oral, diet, M/F, Fischer 344, hepatic): 1 mg/kg-day
- NOAEL ([8]; reproduction developmental, duration: 10 days, inhalation, F, Sprague-Dawley, neurological): 465 mg/m3
- NOAEL ([8]; subchronic, duration: 6 weeks, inhalation, M/F, Sprague-Dawley, neurological): 465 mg/m3
- NOEL ([9]; duration: 13 weeks, gavage, M/F, Deaths + Clinical Observation: Hyperactivity Convulsions + Body Weight Changes: decrease + Relative Organ Weight: Liver increase, Brain …): < 47 mg/kg-day
- NOAEL [12]: 1 mg/kg-day

SMILES: COc1cc(S(=O)(=O)[O-])c(C)cc1N=Nc1c(O)ccc2cc(S(=O)(=O)[O-])ccc12.[Na+].[Na+]
- LD50 ([2]; acute, gavage, Dog Other): > 5000 mg/kg
- LD50 ([3]; gavage, Sprague-Dawley): > 10000 mg/kg
- LOAEL [3, 17]: 3600 mg/kg-day
- NOAEL [3, 17]: 901 mg/kg-day
- LOAEL [3, 18]: > 2830 mg/kg-day
- NOAEL [3, 18]: 2830 mg/kg-day
- NOAEL ([3]; developmental, duration: 19 days, gavage, Osborne-Mendel): 1000 mg/kg-day
- LOAEL [3, 19]: 546 mg/kg-day
- NOAEL [3, 19]: 274 mg/kg-day
- LOAEL [3, 20]: 51900 ppm
- NOAEL [3, 20]: 13900 ppm
- LOAEL [3, 21]: 3600 mg/kg-day
- NOAEL [3, 21]: 901 mg/kg-day
- LOAEL [3, 22]: > 2830 mg/kg-day
- NOAEL [3, 22]: 2830 mg/kg-day
- NOAEL ([3]; reproduction developmental, duration: 19 days, gavage, F, Osborne-Mendel): 1000 mg/kg-day
- NOAEL ([3]; reproduction developmental, duration: 20 days, drinking water, F, Osborne-Mendel): 939 mg/kg-day
- LOAEL ([3]; reproduction developmental, duration: 20 days, drinking water, Osborne-Mendel, generation: F1): 546 mg/kg-day
- LOAEL [3, 23]: 51900 ppm
- NOAEL [3, 23]: 13900 ppm
- NOAEL (% diet) ([4]; chronic, duration: 104 weeks, diet, CD1): > 5.19

From EPA's ToxValDB 9.5
